Measured values reported in US9006487B2, “Amine-containing lipids and uses thereof” (Massachusetts Institute of Technology, priority 2005, dated 2015).
“And” between values parts separate entries of the source, which are not always exact repeats. Equal values may be shown once.

How the values were obtained:
cos-7 cells = assay: DNA transfection: luciferase expression relative to Lipofectamine 2000; format: cell-based; conditions: for luciferase expression (second part of table, values relative to LIPO2000): 300 ng of DNA per well; for % of the luciferase activity obtained from the use of Lipofectamine 2000: 300 ng DNA per well, luciferase assay after 48 hours
Procedure, shortened: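 cos-7 cells were transfected with 300 ng/well luciferase DNA complexed with lipid at ratios from 2.5 to 25 w/w. Bright-Glo luminescence was read after 48 hours and converted to ng luciferase by standard curve. Data are percent of the Lipofectamine 2000 control (2.5 w/w).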

[1] = DNA delivery: raw luciferase expression (relative light units) of best-transfecting lipids; format: cell-based; conditions: 300 ng of DNA per well
Experimental: Raw values for luciferase expression (relative lights units) of best-transfecting lipids at lipid/DNA (w/w) ratios listed. 300 ng of DNA was added per well.

CCCCCCCCCCCCNC(=O)CCN(CCCO)CCC(=O)NCCCCCCCCCCCC [ND20]
luciferase expression (second part of table, values relative to LIPO2000) (cos-7 cells; lipid/DNA 2.5 w/w): 278.4
luciferase expression (second part of table, values relative to LIPO2000) (cos-7 cells; lipid/DNA 5 w/w): 278.1
luciferase expression (second part of table, values relative to LIPO2000) (cos-7 cells; lipid/DNA 10 w/w): 0.2
luciferase expression (second part of table, values relative to LIPO2000) (cos-7 cells; lipid/DNA 15 w/w): 0.1
luciferase expression (second part of table, values relative to LIPO2000) (cos-7 cells; lipid/DNA 20 w/w): 0.0
luciferase expression (second part of table, values relative to LIPO2000) (cos-7 cells; lipid/DNA 25 w/w): 0.0
luciferase expression, second set of columns (replicate set of data) (cos-7 cells; 1st column, no head printed (2.5 w/w by the raw values)): 84.9
luciferase expression, second set of columns (replicate set of data) (cos-7 cells; 2nd column, no head printed (5 w/w by the raw values)): 5.5
luciferase expression, second set of columns (replicate set of data) (cos-7 cells; 3rd column, no head printed (10 w/w by the raw values)): 0.1
luciferase expression, second set of columns (replicate set of data) (cos-7 cells; 4th column, no head printed (15 w/w by the raw values)): 0.0
Raw values for luciferase expression ([1]; lipid/DNA 2.5 w/w): 6868960 relative lights units and 7521540 relative lights units

CCCCCCCCCCCCNC(=O)CCN(CCC(=O)NCCCCCCCCCCCC)CC(C)O (centres unmarked) [ND21]
luciferase expression (second part of table, values relative to LIPO2000) (cos-7 cells; lipid/DNA 2.5 w/w): 47.4
luciferase expression (second part of table, values relative to LIPO2000) (cos-7 cells; lipid/DNA 5 w/w): 69.2
luciferase expression (second part of table, values relative to LIPO2000) (cos-7 cells; lipid/DNA 10 w/w): 18.7
luciferase expression (second part of table, values relative to LIPO2000) (cos-7 cells; lipid/DNA 15 w/w): 2.6
luciferase expression (second part of table, values relative to LIPO2000) (cos-7 cells; lipid/DNA 20 w/w): 0.1
luciferase expression (second part of table, values relative to LIPO2000) (cos-7 cells; lipid/DNA 25 w/w): 0.4
Raw values for luciferase expression ([1]; lipid/DNA 2.5 w/w): 1170534 relative lights units
Raw values for luciferase expression ([1]; lipid/DNA 5 w/w): 1213862 relative lights units

CCCCCCCCCCCCNC(=O)CCN(CCC(=O)NCCCCCCCCCCCC)CC(C)O (centres unmarked) [ND22]
luciferase expression (second part of table, values relative to LIPO2000) (cos-7 cells; lipid/DNA 2.5 w/w): 29.2
luciferase expression (second part of table, values relative to LIPO2000) (cos-7 cells; lipid/DNA 5 w/w): 61.7
luciferase expression (second part of table, values relative to LIPO2000) (cos-7 cells; lipid/DNA 10 w/w): 48.0
luciferase expression (second part of table, values relative to LIPO2000) (cos-7 cells; lipid/DNA 15 w/w): 4.4
luciferase expression (second part of table, values relative to LIPO2000) (cos-7 cells; lipid/DNA 20 w/w): 0.4
luciferase expression (second part of table, values relative to LIPO2000) (cos-7 cells; lipid/DNA 25 w/w): 0.2
Raw values for luciferase expression ([1]; lipid/DNA 2.5 w/w): 721270 relative lights units
Raw values for luciferase expression ([1]; lipid/DNA 5 w/w): 1083569 relative lights units

CCCCCCCCCCCCNC(=O)CCN(CCC(=O)NCCCCCCCCCCCC)CCc1c[nH]cn1 [ND94]
Raw values for luciferase expression ([1]; lipid/DNA 2.5 w/w): 774425 relative lights units
Raw values for luciferase expression ([1]; lipid/DNA 5 w/w): 1382667 relative lights units

CCCCCCCCCCCCNC(=O)CCN(C)CCCN(CCC(=O)NCCCCCCCCCCCC)CCC(=O)NCCCCCCCCCCCC [ND96]
Raw values for luciferase expression ([1]; lipid/DNA 2.5 w/w): 2910700 relative lights units
Raw values for luciferase expression ([1]; lipid/DNA 5 w/w): 42837 relative lights units

CCCCCCCCCCCCNC(=O)CCN(CCO)CCN(CCC(=O)NCCCCCCCCCCCC)CCC(=O)NCCCCCCCCCCCC [ND109]
Raw values for luciferase expression ([1]; lipid/DNA 2.5 w/w): 2197484 relative lights units
Raw values for luciferase expression ([1]; lipid/DNA 5 w/w): 2087995 relative lights units

CCCCCCCCCCCCCCNC(=O)CCN(CCCOC)CCC(=O)NCCCCCCCCCCCCCC [NF1]
Raw values for luciferase expression ([1]; lipid/DNA 2.5 w/w): 778473 relative lights units
Raw values for luciferase expression ([1]; lipid/DNA 5 w/w): 227587 relative lights units

CCCCCCCCCCCCCCNC(=O)CCN(CCOC)CCC(=O)NCCCCCCCCCCCCCC [NF10]
Raw values for luciferase expression ([1]; lipid/DNA 2.5 w/w): 1192178 relative lights units
Raw values for luciferase expression ([1]; lipid/DNA 5 w/w): 838283 relative lights units

CCCCCCCCCCCCCCNC(=O)CCN(CCCO)CCC(=O)NCCCCCCCCCCCCCC [NF20]
Raw values for luciferase expression ([1]; lipid/DNA 2.5 w/w): 1814886 relative lights units
Raw values for luciferase expression ([1]; lipid/DNA 5 w/w): 1801431 relative lights units

CCCCCCCCCCCCCCNC(=O)CCN(CCC(=O)NCCCCCCCCCCCCCC)C(CO)CO [NF25]
Raw values for luciferase expression ([1]; lipid/DNA 2.5 w/w): 2473702 relative lights units
Raw values for luciferase expression ([1]; lipid/DNA 5 w/w): 1366194 relative lights units

CCCCCCCCCCCCCCNC(=O)CCN(C)CCCN(C)CCC(=O)NCCCCCCCCCCCCCC [NF63]
Raw values for luciferase expression ([1]; lipid/DNA 2.5 w/w): 1141469 relative lights units
Raw values for luciferase expression ([1]; lipid/DNA 5 w/w): 865897 relative lights units
Raw values for luciferase expression ([1]; lipid/DNA 10 w/w): 3031718 relative lights units
Raw values for luciferase expression ([1]; lipid/DNA 15 w/w): 1138429 relative lights units

CCCCCCCCCCCCCCNC(=O)CCN(CCCN1CCOCC1)CCC(=O)NCCCCCCCCCCCCCC [NF91]
Raw values for luciferase expression ([1]; lipid/DNA 2.5 w/w): 1993690 relative lights units
Raw values for luciferase expression ([1]; lipid/DNA 5 w/w): 1670695 relative lights units

CCCCCCCCCCCCCCCNC(=O)CCN(CC)CCN(CC)CCC(=O)NCCCCCCCCCCCCCCC [NG61]
Raw values for luciferase expression ([1]; lipid/DNA 2.5 w/w): 1452027 relative lights units
Raw values for luciferase expression ([1]; lipid/DNA 5 w/w): 765795 relative lights units

CCCCCCCCCCCCCCCNC(=O)CCN(CCC(=O)NCCCCCCCCCCCCCCC)CCC1CCCN1C (centres unmarked) [NG77]
Raw values for luciferase expression ([1]; lipid/DNA 2.5 w/w): 972002 relative lights units
Raw values for luciferase expression ([1]; lipid/DNA 5 w/w): 1184771 relative lights units

CCCCCCCCCCCCCCCNC(=O)CCN(CCC(=O)NCCCCCCCCCCCCCCC)CCN(CCO)CCO [NG86]
Raw values for luciferase expression ([1]; lipid/DNA 2.5 w/w): 1357355 relative lights units
Raw values for luciferase expression ([1]; lipid/DNA 5 w/w): 1521687 relative lights units
Raw values for luciferase expression ([1]; lipid/DNA 10 w/w): 1513703 relative lights units
Raw values for luciferase expression ([1]; lipid/DNA 15 w/w): 1223360 relative lights units

CCCCCCCCCCCCCCCNC(=O)CCN(CCCN(CCO)CCO)CCC(=O)NCCCCCCCCCCCCCCC [NG87]
Raw values for luciferase expression ([1]; lipid/DNA 2.5 w/w): 823764 relative lights units
Raw values for luciferase expression ([1]; lipid/DNA 5 w/w): 1005875 relative lights units

CCCCCCCCCCCCCCCNC(=O)CCN(C)CCN(CCC(=O)NCCCCCCCCCCCCCCC)CCC(=O)NCCCCCCCCCCCCCCC [NG95]
Raw values for luciferase expression ([1]; lipid/DNA 10 w/w): 834849 relative lights units
Raw values for luciferase expression ([1]; lipid/DNA 15 w/w): 1208120 relative lights units

CCCCCCCCCCCCCCCCNC(=O)CCN(CCN(CCC(=O)NCCCCCCCCCCCCCCCC)C(C)C)C(C)C [NP62]
Raw values for luciferase expression ([1]; lipid/DNA 2.5 w/w): 1443678 relative lights units
Raw values for luciferase expression ([1]; lipid/DNA 5 w/w): 33188 relative lights units

CCCCCCCCCCCCCCCCNC(=O)CCN(C)CCCN(C)CCC(=O)NCCCCCCCCCCCCCCCC [NP63]
Raw values for luciferase expression ([1]; lipid/DNA 2.5 w/w): 1180418 relative lights units
Raw values for luciferase expression ([1]; lipid/DNA 5 w/w): 1543275 relative lights units
Raw values for luciferase expression ([1]; lipid/DNA 10 w/w): 1388102 relative lights units
Raw values for luciferase expression ([1]; lipid/DNA 15 w/w): 798342 relative lights units

CCCCCCCCCCCCCCCCNC(=O)CCN(CCC(=O)NCCCCCCCCCCCCCCCC)CCN(CCO)CCO [NP86]
Raw values for luciferase expression ([1]; lipid/DNA 10 w/w): 595340 relative lights units
Raw values for luciferase expression ([1]; lipid/DNA 15 w/w): 1323915 relative lights units

CCCCCCCCCCCCCCCCNC(=O)CCN(CCCN(CCO)CCO)CCC(=O)NCCCCCCCCCCCCCCCC [NP87]
Raw values for luciferase expression ([1]; lipid/DNA 10 w/w): 1207376 relative lights units
Raw values for luciferase expression ([1]; lipid/DNA 15 w/w): 1192838 relative lights units

CCCCCCCCCCCCCCCCNC(=O)CCN(CCC(=O)NCCCCCCCCCCCCCCCC)CCN(CCC(=O)NCCCCCCCCCCCCCCCC)CCC(=O)NCCCCCCCCCCCCCCCC [NP99]
Raw values for luciferase expression ([1]; lipid/DNA 2.5 w/w): 3202948 relative lights units
Raw values for luciferase expression ([1]; lipid/DNA 5 w/w): 9767 relative lights units

CCCCCCCCCCCCCCCOC(=O)CC[N+](C)(CCC[N+](C)(CCC(=O)OCCCCCCCCCCCCCCC)CCC(=O)OCCCCCCCCCCCCCCC)CCC(=O)OCCCCCCCCCCCCCCC [QG100]
% of the luciferase activity obtained from the use of Lipofectamine 2000 (cos-7 cells; 2.5 w/w lipid to DNA): 11.2%
% of the luciferase activity obtained from the use of Lipofectamine 2000 (cos-7 cells; 5 w/w lipid to DNA): 32.1%
% of the luciferase activity obtained from the use of Lipofectamine 2000 (cos-7 cells; 10 w/w lipid to DNA): 57.1%
% of the luciferase activity obtained from the use of Lipofectamine 2000 (cos-7 cells; 15 w/w lipid to DNA): 102.6%
% of the luciferase activity obtained from the use of Lipofectamine 2000 (cos-7 cells; 20 w/w lipid to DNA): 93.0%
% of the luciferase activity obtained from the use of Lipofectamine 2000 (cos-7 cells; 25 w/w lipid to DNA): 94.5%
luciferase expression (second part of table, values relative to LIPO2000) (cos-7 cells; lipid/DNA 2.5 w/w): 11.2
luciferase expression (second part of table, values relative to LIPO2000) (cos-7 cells; lipid/DNA 5 w/w): 32.1
luciferase expression (second part of table, values relative to LIPO2000) (cos-7 cells; lipid/DNA 10 w/w): 57.1
luciferase expression (second part of table, values relative to LIPO2000) (cos-7 cells; lipid/DNA 15 w/w): 102.6
luciferase expression (second part of table, values relative to LIPO2000) (cos-7 cells; lipid/DNA 20 w/w): 93.0
luciferase expression (second part of table, values relative to LIPO2000) (cos-7 cells; lipid/DNA 25 w/w): 94.5
